# Laboratory results reported in patent EP2298778A1, “IMIDAZOTHIAZOLE DERIVATIVE HAVING 4,7-DIAZASPIROÝ2.5¨OCTANE RING STRUCTURE” (Daiichi Sankyo Company, Limited, priority 2008, dated 2009).
# Test: Metabolic stability test (microsomal metabolism test)
# Format: in vitro ADME
# Conditions: pH 7.4; human-derived liver microsomes, test compound remaining after addition of NADP+ and incubation at 37°C for 30 minutes; read-out: metabolic stability of T/C%
# Experimental: (Test Example 3 Metabolic stability test) 100 µL of 100 mM phosphate buffer solution (pH 7.4) containing 3 µM test compound was added to 100 µL of reaction solution containing 100 mM phosphate buffer solution (pH 7.4), 30 mM glucose 6-phosphate, 10 mM MgCl2·6H2O, 3 units/mL glucose 6-phosphate 1-dehydrogenase, and 0.3 to 1.5 mgP/mL human liver microsomes and the mixture was incubated at 37°C for 20 minutes. Then, 70 µL of 100 mM phosphate buffer solution (pH 7.4) containing 3 mM NADP^+ was added and the mixture was incubated at 37°C for 30 minutes to conduct a microsomal metabolism test. The metabolic stability was calculated according to the following formula: T/C (%) = ((concentration of test compound after addition of NADP)^+and incubation for30minutes)/((concentration of test compound before addition of NADP)^+) × 100. [formula] […]
row,Structure (SMILES),remaining at 0.5 h
1,"CC(C)C1=C(C(=O)N2[C@H](C)CC[C@H]2C(=O)N2CCNC3(CC3)C2)SC2=N[C@@](C)(c3ccc(Cl)cc3)[C@@H](c3ccc(Cl)c(F)c3)N21 [Example 5, 7-[(5R)-1-{[(5R,6S)-5-(4-chloro-3-fluorophenyl)-6-(4-chlorophenyl)-3-isopropyl-6-methyl-5,6-dihydroimidazo[2,1-b][1,3]thiazol-2-yl]carbonyl}-5-methyl-L-prolyl]-4,7-diazaspiro[2.5]octane]",≥ 50%
2,"CC(C)C1=C(C(=O)N2[C@H](C)CC[C@H]2C(=O)N2CCNC3(CC3)C2)SC2=N[C@@](C)(c3ccc(Cl)nc3)[C@@H](c3ccc(Cl)c(F)c3)N21 [Example 11, 7-[(5R)-1-{[(5R,6S)-5-(4-chloro-3-fluorophenyl)-6-(6-chloropyridin-3-yl)-3-isopropyl-6-methyl-5,6-dihydroimidazo[2,1-b] [1,3]thiazol-2-yl]carbonyl}-5-methyl-L-prolyl]-4,7-diazaspiro[2.5]octane]",≥ 50%
3,"CC(C)C1=C(C(=O)N2[C@H](C)CC[C@H]2C(=O)N2CCNC3(CC3)C2)SC2=N[C@@](C)(c3ccc(C#N)cc3)[C@@H](c3ccc(Cl)c(F)c3)N21 [Example 30, 4-[(5R,6S)-5-(4-chloro-3-fluorophenyl)-2-{[(2S,5R)-2-(4,7-diazaspiro[2.5]oct-7-ylcarbonyl)-5-methylpyrrolidin-1-yl]carbonyl}-3-isopropyl-6-methyl-5,6-dihydroimidazo[2,1-b][1,3]thiazol-6-yl]benzonitrile]",≥ 50%
4,"CC(C)C1=C(C(=O)N2[C@H](C)CC[C@H]2C(=O)N2CCNC3(CC3)C2)SC2=N[C@@](C)(c3ccc(Cl)nc3)[C@@H](c3ccc(F)c(Cl)c3)N21 [Example 26, 7-[(5R)-1-{[(5R,6S)-5-(3-chloro-4-fluorophenyl)-6-(6-chloropyridin-3-yl)-3-isopropyl-6-methyl-5,6-dihydroimidazo[2,1-b][1,3]thiazol-2-yl]carbonyl}-5-methyl-L-prolyl]-4,7-diazaspiro[2.5]octane]",≥ 50%
5,"CC(C)C1=C(C(=O)N2[C@H](C)CC[C@H]2C(=O)N2CCNC3(CC3)C2)SC2=N[C@@](C)(c3ccc(Cl)nc3)[C@@H](c3ccc(Cl)c(Cl)c3)N21 [Example 31, 7-[(5R)-1-{[(5R,6S)-6-(6-chloropyridin-3-yl)-5-(3,4-dichlorophenyl)-3-isopropyl-6-methyl-5,6-dihydroimidazo[2,1-b][1,3]thiazol-2-yl]carbonyl}-5-methyl-L-prolyl]-4,7-diazaspiro [2.5] octane]",≥ 50%
6,"CC(C)C1=C(C(=O)N2[C@H](CF)CC[C@H]2C(=O)N2CCN(C)C3(CC3)C2)SC2=N[C@@](C)(c3ccc(Cl)cc3)[C@@H](c3ccc(Cl)cc3)N21 [Example 39, 7-[(5S)-1-{[(5R,6S)-5,6-bis(4-chlorophenyl)-3-isopropyl-6-methyl-5,6-dihydroimidazo[2,1-b][1,3]thiazol-2-yl]carbonyl}-5-(fluoromethyl)-L-prolyl]-4-methyl-4,7-diazaspiro[2.5]octane]",≥ 50%
7,"CC(C)C1=C(C(=O)N2[C@H](C)CC[C@H]2C(=O)N2CC3(CC3)NC[C@@H]2C)SC2=N[C@@](C)(c3ccc(Cl)nc3)[C@@H](c3ccc(Cl)c(F)c3)N21 [Example 21, (6S)-7-[(5R)-1-{[(5R,6S)-5-(4-chloro-3-fluorophenyl)-6-(6-chloropyridin-3-yl)-3-isopropyl-6-methyl-5,6-dihydroimidazo[2,1-b][1,3]thiazol-2-yl]carbonyl}-5-methyl-L-prolyl]-6-methyl-4,7-diazaspiro[2.5]octane]",≥ 50%
8,"CC(C)C1=C(C(=O)N2[C@H](C)CC[C@H]2C(=O)N2CCN(C)C3(CC3)C2)SC2=N[C@@](C)(c3ccc(Cl)nc3)[C@@H](c3ccc(Cl)cc3)N21 [Example 9, 7-[(5R)-1-{[(5R,6S)-5-(4-chlorophenyl)-6-(6-chloropyridin-3-yl)-3-isopropyl-6-methyl-5,6-dihydroimidazo[2,1-b][1,3]thiazol-2-yl]carbonyl}-5-methyl-L-prolyl]-4-methyl-4,7-diazaspiro[2.5]octane]",≥ 50%

# Now from value to compound:
row,remaining at 0.5 h,Structure (SMILES)
1,≥ 50%,"CC(C)C1=C(C(=O)N2CCC[C@H]2C(=O)N2CC3(CC3)NC[C@@H]2C)SC2=N[C@@](C)(c3ccc(Cl)nc3)[C@@H](c3ccc(Cl)c(F)c3)N21 [Example 57, (6S)-7-(1-{[(5R,6S)-5-(4-chloro-3-fluorophenyl)-6-(6-chloropyridin-3-yl)-3-isopropyl-6-methyl-5,6-dihydroimidazo[2,1-b][1,3]thiazol-2-yl]carbonyl}-L-prolyl)-6-methyl-4,7-diazaspiro[2.5]octane]"
2,≥ 50%,"CCN(C(=O)C1=C(C(C)C)N2C(=N[C@@](C)(c3ccc(Cl)nc3)[C@H]2c2ccc(Cl)c(F)c2)S1)C1(C(=O)N2CCNC3(CC3)C2)CC1 [Example 53, (5R,6S)-5-(4-chloro-3-fluorophenyl)-6-(6-chloropyridin-3-yl)-N-[1-(4,7-diazaspiro[2.5]oct-7-ylcarbonyl)cyclopropyl]-N-ethyl-3-isopropyl-6-methyl-5,6-dihydroimidazo[2,1-b][1,3]thiazole-2-carboxamide]"
3,≥ 50%,"CC(C)C1=C(C(=O)N2[C@H](C)CC[C@H]2C(=O)N2CC3(CC3)N(C(=O)C(F)(F)F)C[C@@H]2C)SC2=N[C@@](C)(c3ccc(Cl)nc3)[C@@H](c3ccc(Cl)c(F)c3)N21 [Example 60, (6S)-7-[(5R)-1-{[(5R, 6S)-5-(4-chloro-3-fluorophenyl)-6-(6-chloropyridin-3-yl)-3-isopropyl-6-methyl-5,6-dihydroimidazo[2,1-b][1,3]thiazol-2-yl]carbonyl}-5-methyl-L-prolyl]-6-methyl-4-(trifluoroacetyl)-4,7-diazaspiro[2.5]octane]"
4,≥ 50%,"CC[C@@H]1CC[C@@H](C(=O)N2CC3(CC3)NC[C@@H]2C)N1C(=O)C1=C(C(C)C)N2C(=N[C@@](C)(c3ccc(Cl)nc3)[C@H]2c2ccc(Cl)c(F)c2)S1 [Example 56, (6S)-7-[(5R)-1-{[(5R,6S)-5-(4-chloro-3-fluorophenyl)-6-(6-chloropyridin-3-yl)-3-isopropyl-6-methyl-5,6-dihydroimidazo[2,1-b][1,3]thiazol-2-yl]carbonyl}-5-ethyl-L-prolyl]-6-methyl-4,7-diazaspiro[2.5]octane]"
5,≥ 50%,"CC(C)C1=C(C(=O)N2[C@H](CF)CC[C@H]2C(=O)N2CCNC3(CC3)C2)SC2=N[C@@](C)(c3ccc(Cl)nc3)[C@@H](c3ccc(Cl)c(F)c3)N21 [Example 40, 7-[(5S)-1-{[(5R,6S)-5-(4-chloro-3-fluorophenyl)-6-(6-chloropyridin-3-yl)-3-isopropyl-6-methyl-5,6-dihydroimidazo[2,1-b][1,3]thiazol-2-yl]carbonyl}-5-(fluoromethyl)-L-prolyl]-4,7-diazaspiro[2.5]octane]"
6,≥ 50%,"CC(C)C1=C(C(=O)N2C[C@@](C)(O)C[C@H]2C(=O)N2CC3(CC3)NC[C@@H]2C)SC2=N[C@@](C)(c3ccc(Cl)nc3)[C@@H](c3ccc(Cl)c(F)c3)N21 [Example 68, (3S,5S)-1-{[(5R,6S)-5-(4-chloro-3-fluorophenyl)-6-(6-chloropyridin-3-yl)-3-isopropyl-6-methyl-5,6-dihydroimidazo[2,1-b][1,3]thiazol-2-yl]carbonyl}-3-methyl-5-{[(6S)-6-methyl-4,7-diazaspiro[2.5]oct-7-yl]carbonyl}pyrrolidin-3-ol]"
7,≥ 50%,"CCN(C(=O)C1=C(C(C)C)N2C(=N[C@@](C)(c3ccc(Cl)cc3)[C@H]2c2ccc(Cl)cc2)S1)[C@@H](C)C(=O)N1CCNC2(CC2)C1 [Example 54, (5R,6S)-5,6-bis(4-chlorophenyl)-N-[(1S)-2-(4,7-diazaspiro[2.5]oct-7-yl)-1-methyl-2-oxoethyl]-N-ethyl-3-isopropyl-6-methyl-5,6-dihydroimidazo[2,1-b][1,3]thiazole-2-carboxamide]"
8,≥ 50%,"CC(C)C1=C(C(=O)N2[C@H](C)CC[C@H]2C(=O)N2CCNC3(CC3)C2)SC2=N[C@@](C)(c3ccc(Cl)nc3)[C@@H](c3ccc(Cl)c(O)c3)N21 [Example 71, 2-chloro-5-[(5R,6S)-6-(6-chloropyridin-3-yl)-2-{[(2S,5R)-2-(4,7-diazaspiro[2.5]oct-7-ylcarbonyl)-5-methylpyrrolidin-1-yl]carbonyl}-3-isopropyl-6-methyl-5,6-dihydroimidazo[2,1-b][1,3]thiazol-5-yl]phenol]"
9,≥ 50%,"CC[C@@H]1CNC2(CC2)CN1C(=O)[C@@H]1CCCN1C(=O)C1=C(C(C)C)N2C(=N[C@@](C)(c3ccc(Cl)nc3)[C@H]2c2ccc(Cl)c(F)c2)S1 [Example 62, (6R)-7-(1-{[(5R,6S)-5-(4-chloro-3-fluorophenyl)-6-(6-chloropyridin-3-yl)-3-isopropyl-6-methyl-5,6-dihydroimidazo[2,1-b][1,3]thiazol-2-yl]carbonyl}-L-prolyl)-6-ethyl-4,7-diazaspiro[2.5]octane]"
10,≥ 50%,"CC(C)C1=C(C(=O)N2C(=O)CC[C@H]2C(=O)N2CCNC3(CC3)C2)SC2=N[C@@](C)(c3ccc(Cl)cc3)[C@@H](c3ccc(Cl)cc3)N21 [Example 42, (5S)-1-{[(5R,6S)-5,6-bis(4-chlorophenyl)-3-isopropyl-6-methyl-5,6-dihydroimidazo[2,1-b][1,3]thiazol-2-yl]carbonyl}-5-(4,7-diazaspiro[2.5]oct-7-ylcarbonyl)pyrrolidin-2-one]"
